# System: COR L88 complex tumor spheroid viability
# Test: Anticancer human tumor COR L88 cell line growth inhibition;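 note: compound exposure lasted 7 days before viability readout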;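 for viability, T/C: percent of DMSO vehicle-treated spheroids = 100%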
# Details: for IC50: curve of first compound; for viability, T/C: stronger effect = lower value
# Method in brief: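 Complex spheroids of malignant cells with endothelial cells and mesenchymal stem cells; agents alone or combined, from near clinical Cmax (or 10 microM if unknown) down in half-log steps, 0.25% DMSO final.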
# [1] = second compound 0.003 µM, first compound 0.0316 µM
# [2] = second compound 0.003 µM, first compound 0.1 µM
# [3] = second compound 0.003 µM, first compound 0.316 µM
# [4] = second compound 0.003 µM, first compound 1 µM
# [5] = second compound 0.003 µM, first compound 3.16 µM
# [6] = second compound 0.003 µM, first compound 10 µM
smiles,measurement,setting,value
CNCc1ccc(-c2cc(-c3nc(-c4ccc(S(=O)(=O)C(C)C)cc4)cnc3N)on2)cc1 + COc1cc2c(cc1O)CCNC21CSC2c3c(OC(C)=O)c(C)c4c(c3C(COC1=O)N1C(O)C3Cc5cc(C)c(OC)c(O)c5C(C21)N3C)OCO4,IC50,second compound 30 pM,394 nM
same,IC50,second compound 94.9 pM,331 nM
same,IC50,second compound 0.0003 µM,248 nM
same,IC50,second compound 0.000949 µM,30.7 nM
same,IC50,second compound 0.003 µM,< 9.49 nM
same,"viability, T/C","second compound 30 pM, first compound 0.00949 µM",108%
same,"viability, T/C","second compound 30 pM, first compound 0.03 µM",110%
same,"viability, T/C","second compound 30 pM, first compound 0.0949 µM",101%
same,"viability, T/C","second compound 30 pM, first compound 0.3 µM",57.5%
same,"viability, T/C","second compound 30 pM, first compound 0.949 µM",22.4%
same,"viability, T/C","second compound 30 pM, first compound 3 µM",7.83%
same,"viability, T/C","second compound 94.9 pM, first compound 0.00949 µM",102%
same,"viability, T/C","second compound 94.9 pM, first compound 0.03 µM",106%
same,"viability, T/C","second compound 94.9 pM, first compound 0.0949 µM",101%
same,"viability, T/C","second compound 94.9 pM, first compound 0.3 µM",50.2%
same,"viability, T/C","second compound 94.9 pM, first compound 0.949 µM",22.5%
same,"viability, T/C","second compound 94.9 pM, first compound 3 µM",5.19%
same,"viability, T/C","second compound 0.0003 µM, first compound 0.00949 µM",82%
same,"viability, T/C","second compound 0.0003 µM, first compound 0.03 µM",91.2%
same,"viability, T/C","second compound 0.0003 µM, first compound 0.0949 µM",75.9%
same,"viability, T/C","second compound 0.0003 µM, first compound 0.3 µM",43.7%
same,"viability, T/C","second compound 0.0003 µM, first compound 0.949 µM",19.8%
same,"viability, T/C","second compound 0.0003 µM, first compound 3 µM",8.93%
same,"viability, T/C","second compound 0.000949 µM, first compound 0.00949 µM",62.4%
same,"viability, T/C","second compound 0.000949 µM, first compound 0.03 µM",49.4%
same,"viability, T/C","second compound 0.000949 µM, first compound 0.0949 µM",31.6%
same,"viability, T/C","second compound 0.000949 µM, first compound 0.3 µM",10.9%
same,"viability, T/C","second compound 0.000949 µM, first compound 0.949 µM",7.96%
same,"viability, T/C","second compound 0.000949 µM, first compound 3 µM",3.08%
same,"viability, T/C","second compound 0.003 µM, first compound 0.00949 µM",0.92%
same,"viability, T/C","second compound 0.003 µM, first compound 0.03 µM",0.86%
same,"viability, T/C","second compound 0.003 µM, first compound 0.0949 µM",0.58%
same,"viability, T/C","second compound 0.003 µM, first compound 0.3 µM",0.62%
same,"viability, T/C","second compound 0.003 µM, first compound 0.949 µM",0.86%
same,"viability, T/C","second compound 0.003 µM, first compound 3 µM",0.52%
CC(C)n1c(=O)n(C)c2cnc3cc(F)c(-c4ccc(OCCCN5CCCCC5)nc4)cc3c21 + CC[C@@]1(O)C(=O)OCc2c1cc1n(c2=O)Cc2cc3c(CN(C)C)c(O)ccc3nc2-1,IC50,second compound 0.003 µM,5160 nM
same,IC50,second compound 0.00949 µM,157 nM
same,IC50,second compound 0.03 µM,< 31.6 nM
same,IC50,second compound 0.0949 µM,< 31.6 nM
same,IC50,second compound 0.3 µM,< 31.6 nM
same,"viability, T/C",[1],85%
same,"viability, T/C",[2],94.2%
same,"viability, T/C",[3],76.9%
same,"viability, T/C",[4],80.6%
same,"viability, T/C",[5],68.2%
same,"viability, T/C",[6],26.9%
same,"viability, T/C","second compound 0.00949 µM, first compound 0.0316 µM",51.9%
same,"viability, T/C","second compound 0.00949 µM, first compound 0.1 µM",52.9%
same,"viability, T/C","second compound 0.00949 µM, first compound 0.316 µM",48.2%
same,"viability, T/C","second compound 0.00949 µM, first compound 1 µM",40.6%
same,"viability, T/C","second compound 0.00949 µM, first compound 3.16 µM",33%
same,"viability, T/C","second compound 0.00949 µM, first compound 10 µM",14.1%
same,"viability, T/C","second compound 0.03 µM, first compound 0.0316 µM",46.5%
same,"viability, T/C","second compound 0.03 µM, first compound 0.1 µM",42.1%
same,"viability, T/C","second compound 0.03 µM, first compound 0.316 µM",37.3%
same,"viability, T/C","second compound 0.03 µM, first compound 1 µM",29.7%
same,"viability, T/C","second compound 0.03 µM, first compound 3.16 µM",30.6%
same,"viability, T/C","second compound 0.03 µM, first compound 10 µM",14.2%
same,"viability, T/C","second compound 0.0949 µM, first compound 0.0316 µM",38.6%
same,"viability, T/C","second compound 0.0949 µM, first compound 0.1 µM",36.4%
same,"viability, T/C","second compound 0.0949 µM, first compound 0.316 µM",30.2%
same,"viability, T/C","second compound 0.0949 µM, first compound 1 µM",28.6%
same,"viability, T/C","second compound 0.0949 µM, first compound 3.16 µM",27.2%
same,"viability, T/C","second compound 0.0949 µM, first compound 10 µM",15.3%
same,"viability, T/C","second compound 0.3 µM, first compound 0.0316 µM",44.3%
same,"viability, T/C","second compound 0.3 µM, first compound 0.1 µM",42.7%
same,"viability, T/C","second compound 0.3 µM, first compound 0.316 µM",39%
same,"viability, T/C","second compound 0.3 µM, first compound 1 µM",34.5%
same,"viability, T/C","second compound 0.3 µM, first compound 3.16 µM",27.7%
same,"viability, T/C","second compound 0.3 µM, first compound 10 µM",14.7%
COc1ccc([C@@H](O)c2cc(-c3ncnc4cc(N5CCOCC5)ccc34)c(F)cc2Cl)nn1 + COc1cc2c(cc1O)CCNC21CSC2c3c(OC(C)=O)c(C)c4c(c3C(COC1=O)N1C(O)C3Cc5cc(C)c(OC)c(O)c5C(C21)N3C)OCO4,IC50,second compound 30 pM,7580 nM
same,IC50,second compound 94.9 pM,> 10000 nM
same,IC50,second compound 0.0003 µM,1150 nM
same,IC50,second compound 0.000949 µM,111 nM
same,IC50,second compound 0.003 µM,< 31.6 nM
same,"viability, T/C","second compound 30 pM, first compound 0.0316 µM",100%
same,"viability, T/C","second compound 30 pM, first compound 0.1 µM",115%
same,"viability, T/C","second compound 30 pM, first compound 0.316 µM",93.9%
same,"viability, T/C","second compound 30 pM, first compound 1 µM",89.2%
same,"viability, T/C","second compound 30 pM, first compound 3.16 µM",64.6%
same,"viability, T/C","second compound 30 pM, first compound 10 µM",45.3%
same,"viability, T/C","second compound 94.9 pM, first compound 0.0316 µM",104%
same,"viability, T/C","second compound 94.9 pM, first compound 0.1 µM",108%
same,"viability, T/C","second compound 94.9 pM, first compound 0.316 µM",102%
same,"viability, T/C","second compound 94.9 pM, first compound 1 µM",67.8%
same,"viability, T/C","second compound 94.9 pM, first compound 3.16 µM",57.4%
same,"viability, T/C","second compound 94.9 pM, first compound 10 µM",52.2%
same,"viability, T/C","second compound 0.0003 µM, first compound 0.0316 µM",71.4%
same,"viability, T/C","second compound 0.0003 µM, first compound 0.1 µM",63.9%
same,"viability, T/C","second compound 0.0003 µM, first compound 0.316 µM",61.7%
same,"viability, T/C","second compound 0.0003 µM, first compound 1 µM",52.5%
same,"viability, T/C","second compound 0.0003 µM, first compound 3.16 µM",35.8%
same,"viability, T/C","second compound 0.0003 µM, first compound 10 µM",9.95%
same,"viability, T/C","second compound 0.000949 µM, first compound 0.0316 µM",63.2%
same,"viability, T/C","second compound 0.000949 µM, first compound 0.1 µM",51.9%
same,"viability, T/C","second compound 0.000949 µM, first compound 0.316 µM",22.9%
same,"viability, T/C","second compound 0.000949 µM, first compound 1 µM",1.63%
same,"viability, T/C","second compound 0.000949 µM, first compound 3.16 µM",0.6%
same,"viability, T/C","second compound 0.000949 µM, first compound 10 µM",1.43%
same,"viability, T/C",[1],0.95%
same,"viability, T/C",[2],1.03%
same,"viability, T/C",[3],1.37%
same,"viability, T/C",[4],2.44%
same,"viability, T/C",[5],2.37%
same,"viability, T/C",[6],2.01%

# From PubChem BioAssay AID1845201 (Molecular Pharmacology Branch, DTP, NCI, 2023)
